Source: US10961192B2, “(R)-4-hydroxy-2-oxo-1-pyrrolidineacetamide crystal form, preparation method therefor, and application thereof” (CHONGQING RUZER PHARMACEUTICAL COMPANY LIMITED, priority 2017, dated 2021)

Columns and labels:
Type in all cases: physicochemical
[1] = Stability test under high temperature conditions (60° C., 5 days), related substance; details: for changes of the related substances in 5 days: high temperature of 60° C.; for Day 0: Related substance / Day 5: Related substance / Related material changes: 60° C.; for Day 0: Related substance: day 0, average of 5 groups; for Day 5: Related substance: day 5, average of 5 groups; for Related material changes: day 5 versus day 0
Protocol: Stability test of the crystalline form I of (R)-4-hydroxy-2-oxo-1-pyrrolidineacetamideunder high temperature conditions. The crystalline form I of (R)-4-hydroxy-2-oxo-1-pyrrolidinylacetamide prepared in Examples 1 and 3-7 was placed in a flat weighing bottle and spread into thin layers of <5 mm thick, sealed in a clean container respectively and placed at 60° C. for 5 days; samples were taken and detected on day 0 and day 5, respectively.

Solubility in water = test: Solubility in water
[2] = Angle of repose by injection method (fixed funnel method); details: average of 5 groups
Protocol: (§1) In this test, the angle of repose of the crystalline form I of (R)-4-hydroxy-2-oxo-1-pyrrolidineacetamide prepared by the methods of Examples 1 and 3-7 was measured by an injection method (fixed funnel method). The samples to be tested were poured into the funnel, and they were gently and evenly dropped into the center of the disc to form a cone, when the materials fell freely from the oblique edge of the powder along the edge of the disc, the feedings were stopped, and the angles of repose were determined by the protractor; the sample traits and the clarity of the solution were examined, each example was tested for 5 groups and the average was obtained, the results are as follows: […]

Clarity of solution = details: average of 5 groups
Protocol: as §1

Compound | changes of the related substances in 5 days [1] | changes of the related substances in 5 days ([1]; listed as crystalline form of (R)-4-hydroxy-2-oxo-1-pyrrolidineacetamide) | solubility (Solubility in water) [mg/mL] | Day 0: Related substance [1] [%] | Day 5: Related substance [1] [%] | Related material changes [1] [%] | angle of repose [2] [°] | clarity of solution (Clarity of solution)
NC(=O)CN1C[C@H](O)CC1=O [(R)-4-hydroxy-2-oxo-1-pyrrolidineacetamide] | less than 0.15% | tiny | ≥ 100 | – | – | – | – | –
NC(=O)CN1C[C@H](O)CC1=O [Example 1, (R)-4-hydroxy-2-oxo-1-pyrrolidineacetamide] | – | – | – | 0.23 | 0.35 | 0.12 | 28 | clarification
NC(=O)CN1C[C@H](O)CC1=O [Example 3, (R)-4-hydroxy-2-oxo-1-pyrrolidineacetamide] | – | – | – | 0.22 | 0.36 | 0.14 | 28.3 | clarification
NC(=O)CN1C[C@H](O)CC1=O [Example 4, (R)-4-hydroxy-2-oxo-1-pyrrolidineacetamide] | – | – | – | 0.26 | 0.39 | 0.13 | 28.5 | clarification

Other lines, results leading:

changes of the related substances in 5 days [1] | changes of the related substances in 5 days ([1]; listed as crystalline form of (R)-4-hydroxy-2-oxo-1-pyrrolidineacetamide) | solubility (Solubility in water) [mg/mL] | Day 0: Related substance [1] [%] | Day 5: Related substance [1] [%] | Related material changes [1] [%] | angle of repose [2] [°] | clarity of solution (Clarity of solution) | Compound
– | – | – | 0.25 | 0.37 | 0.12 | 27.8 | clarification | NC(=O)CN1C[C@H](O)CC1=O [Example 5, (R)-4-hydroxy-2-oxo-1-pyrrolidineacetamide]
– | – | – | 0.26 | 0.37 | 0.11 | 27.8 | clarification | NC(=O)CN1C[C@H](O)CC1=O [Example 6, (R)-4-hydroxy-2-oxo-1-pyrrolidineacetamide]
– | – | – | 0.22 | 0.33 | 0.11 | 28 | clarification | NC(=O)CN1C[C@H](O)CC1=O [Example 7, (R)-4-hydroxy-2-oxo-1-pyrrolidineacetamide]
